The results in this text go back to patent US10111853B2, “Compounds, compositions, and methods for the treatment of cancers” (PLACON THERAPEUTICS, INC., priority 2012, dated 2018).

A short description of data set [1]: Drug load (gravimetric, GF-AAS) and encapsulation efficiency of nanoparticles. The data set is classed as physicochemical. The conditions noted are these: for Max DL, %: maximum drug load; for Max DL, % / Max EE, %: according to Example 11; for Max EE, %: maximum encapsulation. The protocol:
The polymer composition was varied by the ratio of the PLA or PLGA polymer to PLA-PEG or PLGA-PEG copolymer, as well as the PLA molecular weight (25-109 kDa). […] The oil phase was then slowly added to the continuously stirred aqueous phase containing an emulsifier (such as polysorbate 80 a.k.a. Tween® 80) at 10/90% or 20/80% v/v oil/water ratio and a coarse emulsion was prepared using a rotor-stator homogenizer or an ultrasound bath. The course emulsion was then processed through a high-pressure homogenizer (operated at 5,000 or 10,000 psi) for N=2 or 4 passes to form a nanoemulsion. In process (2) the polymers and the drug were dissolved in an organic solvent miscible with water (such as acetone) and added slowly to a continuously stirred aqueous phase with or without a stabilizer (such as polysorbate 80). In both processes (1) and (2) the nanoemulsion formed was quenched (by 5- or 10-fold dilution with cold (0-5° C.) or room temperature deionized water) to remove the major portion of the organic solvent resulting in hardening of the emulsion droplets and formation of a nanoparticle suspension, which was then concentrated and purified with deionized water containing or not surfactants using tangential flow filtration (500 kDa MWCO, mPES membranes).
The actual drug load was determined gravimetrically by transferring 1 mL of the nanoparticle suspension to a 4 mL glass vial and drying under vacuum on a Rotavapor® to determine the amount of total remaining solids. The drug content was then determined by reconstituting the dried sample in an organic solvent (such as N′N′-dimethylformamide) and measuring the total amount of platinum using graphite furnace atomic adsorption spectroscopy (GF-AAS). Encapsulation efficiency was calculated as the ratio between the actual and the theoretical drug load. The yield was determined based on the ratio between the encapsulated and used compound amounts. In-vitro release was studied by incubating the nanoparticle suspension in phosphate buffered saline (PBS) containing a solubilizer such as 1% hydroxypropyl beta cyclodextrin for 24 h at 37° C. mixed continuously in a water shaking bath. Samples were taken at different time points and spun with an ultracentrifuge at 1,000,000×g to separate the nanoparticles from the dissolution medium. The supernatant was then analyzed using GF-AAS or HPLC to determine the active content as a function of time.

Data set [2] is described as follows: Mouse PK/PD study, tumor platinum levels by ICP-MS. Also noted: species or system nude mice. The conditions noted are these: in vivo, iv, 4 mg/kg. The protocol: To examine the ability of compounds to accumulate in tumors, a murine cancer model was used. Animals were inoculated with 5×10^5 H460 […] lung cancer cells via subcutaneous injection to the flank. Tumors were allowed to reach an approximate volume of ˜500 mm^3. Animals were then randomized into treatment groups of 3 animals per time point and were dosed at 4 mg/kg. The 24 hour time point was used as a benchmark across compounds.
Tumors were excised from animals and dissolved in fuming nitric acid (60% w/w) by adding four parts nitric acid to 1 part tumor w/w and heating overnight at 60 degrees Centigrade. The resulting digest was diluted 1:10 in ICP-MS analysis buffer (1% nitric acid, 2% Triton x-100), and directly introduced into the ICP-MS unit by peristaltic pump. The end dilution factor for the samples as introduced to the ICP-MS was 50×.

Regarding `CC(C)(C)CC(C)(C)NC(=O)[O][Pt]([NH2])([NH2])([Cl])([Cl])[O]C(=O)NC(C)(C)CC(C)(C)C` [Compound 29], in data set [1], the “Max DL, %” value is 5.9% and the “Max EE, %” value is recorded as 59%. In addition, in data set [1] (statement on Table 4), the “encapsulation efficiency (in words)” value is “increased encapsulation efficiency” and the “maximum drug loading (in words)” value is “increased maximum drug loading”. In addition, in data set [2], the “platinum levels in the tumor, nanoparticle suspension versus free compound” value was “higher platinum levels in the tumors when the corresponding compound was dosed as a nanoparticle suspension than as a free compound”.

With `CCCCCC(=O)[O][Pt]([NH2])([NH2])([Cl])([Cl])[O]C(=O)CCCCC` [reference compound], in data set [1], the “Max DL, %” value was found to be 0.55% and the “Max EE, %” value was found to be 2.8%.
